From article PMC6852662 (Organic & biomolecular chemistry, 2019)

Biological target: T1, PmST1 (Pasteurella multocida, UniProt Q15KI8)
T1 sequence (Q15KI8 26-412): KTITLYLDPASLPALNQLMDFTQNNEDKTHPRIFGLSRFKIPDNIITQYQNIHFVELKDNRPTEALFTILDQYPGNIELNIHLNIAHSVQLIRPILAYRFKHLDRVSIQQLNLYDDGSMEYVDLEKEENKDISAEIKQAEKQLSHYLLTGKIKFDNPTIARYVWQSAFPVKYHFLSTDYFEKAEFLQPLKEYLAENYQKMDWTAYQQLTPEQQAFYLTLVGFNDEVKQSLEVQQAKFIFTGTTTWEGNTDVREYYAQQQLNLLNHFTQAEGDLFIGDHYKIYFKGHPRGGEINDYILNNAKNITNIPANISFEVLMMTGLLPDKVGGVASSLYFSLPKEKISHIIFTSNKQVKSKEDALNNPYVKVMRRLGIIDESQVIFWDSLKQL
Assay: sialylation, conversion
Assay type: biochemical
Conditions: poor substrate; prolonged incubation

Gb5 [4a]
conversion: ~ 30%
